{
  "source": "paper PMC4967898",
  "about": "“Peptides interfering with protein-protein interactions in the ethylene signaling pathway delay tomato fruit ripening” (Scientific Reports, 2016)",
  "molecules": {"B1": {"name": "tomato ethylene receptor protein LeETR1 (receptor, UniProt Q41342 1-754, looked up)", "chain": "MGSLLRMNRLLSSIVESCNCIIDPQLPADDLLMKYQYISDFFIALAYFSIPVELIYFVKKSAVFPYRWVLVQFGAFIVLCGATHLINLWTFNMHTRNVAIVMTTPKALTALVSCITALMLVHIIPDLLSVKTRELFLKKKAAQLDREMGIIRTQEETGRHVRMLTHEIRSTLDRHTILKTTLVELGRTLALEECALWMPTRTGLELQLSYTLRHQNPVGLTVPIQLPVINQVFGTNHVVKISPNSPVARLRPAGKYMPGEVVAVRVPLLHLSNFQINDWPELSTKRYALMVLMLPSDSARQWHVHELELVEVVADQVAVALSHAAILEESMRARDLLMEQNVALDLARREAEMAVRARNDFLAVMNHEMRTPMHAIIALSSLLQETDLTPEQRLMVETILKSSNLLATLINDVLDLSRLEDGSLQLDIGTFNLHALFREVHSLIKPIASVKKLFVTLSLSSDLPEYVIGDEKRLMQILLNVVGNAVKFSKEGNVSISAFVAKSDSLRDPRAPEFFAVPSENHFYLRVQIKDTGIGITPQDIPNLFSKFTQSQALATTNSGGTGLGLAICKRFVNLMEGHIWIESEGLGKGSTAIFIIKLGIPGRANESKLPFVTKLPANHTQMSFQGLKVLVMDENGVSRMVTKGLLTHLGCDVTTVGSRDECLRVVTHEHKVVIMDVSMQGIDCYEVAVVIHERFGKRHGRPLIVALTGNTDRVTKENCMRVGMDGVILKPVSVYKMRSVLSELLEHGVVLES", "modifications": "Alexa Fluor 488 succinimidyl-ester label (MST with LeEIN2, FRET assay); Alexa Fluor 488-Maleimide label (MST with NOP-1); non-labeled in the reverse MST titration", "notes": "ethylene receptor ETR1 of tomato (LeETR1); Membrane protein kept in 0.015% Fos-Choline-16 for MST; also called tomato ETR1; tomato receptor"}},
  "key": {"[1]": {"system": "green, immature tomato fruits", "test": "Tomato fruit ripening after inhibitor treatment", "type": "in vivo, tomato (Solanum pimpinellifolium)", "conditions": "for delay in maturation of tomato fruits: 200 μM, all tested inhibitors and all applications of NOP-1 (injection, incubation, surface application), documented for 20 days, three fruits per application", "source_text": "To further investigate the potential of NOP-1 for agricultural applications, we tested the effect of the NOP-1 peptide on tomato fruit ripening in comparison to other known inhibitors of ethylene responses. To this end we tested […] (MCP) and aminoethoxyvinylglycine (AVG). MCP is a known inhibitor of ethylene signaling blocking ethylene binding at the receptor proteins, whereas AVG blocks ethylene production in the plant by competitive inhibition of ACC synthases. To monitor inhibition of the fruit ripening process, we treated green, immature tomato fruits with 200 μM NOP-1, MCP or AVG, respectively and documented the fruit ripening process for 20 days. Figure 3 compares the effect of the different inhibitor treatments on tomato fruits to controls lacking the inhibitory treatment that contain either buffer alone or a random sequence control peptide (ROP-1). […] The bioassays underline the high inhibitory potential of NOP-1 on the ripening process compared to the well-known and efficient inhibitors of ethylene responses.\nInhibitor-treatment of tomato fruits\nAminoethoxyvinyl glycine (AVG) was purchased from Sigma-Aldrich, St Louis, MO (purity ~95%). SmartFresh^SM (AgroFresh, Spring House, PA) was used as sugar-based powder formulation of 1-MCP. Concentration of 1-MCP was calculated according to the percentage of active ingredient (0.14%) and release from the SmartFresh^SM powder. For comparison concentration of all inhibitors are expressed in terms of molarity. For treatment of tomato fruits with NOP-1, AVG and MCP, inhibitors were dissolved in the FRET buffer described in the previous section to a final concentration of 200 μM. Green tomato fruits (Solanum pimpinellifolium) from the same estimated developmental stage were harvested from the panicle and water-cleaned. 300 μL of the inhibitor solution was applied onto the tomato surface with a brush and the fruits were air-dried for 30 min. As an alternative application, tomato fruits were plunged into 2 mL of the inhibitor solution and incubated for 30 min in this solution or 200 μL of the peptide-containing solution were carefully injected into the tomato tissue by a hypodermic syringe. Three individual tomato fruits were treated for the different applications of the peptide in order to document the ripening process. After inhibitor-treatment tomato fruits were transferred to a vial closed with aluminum foil and stored in the dark at room temperature. Maturation process was documented every second day for at least 20 days. For measurement of ethylene production, green tomato fruits were treated as described above."}, "tomato EIN2-ETR1 complex": {"biological_target": "T1, tomato EIN2-ETR1 complex (Solanum lycopersicum, UniProt Q41342)", "T1 construct": "made in house; host or cells: E. coli BL21(DE3) with pRARE (LeEIN2 fragment); E. coli (LeETR1)", "T1 sequence (Q41342 1-754)": "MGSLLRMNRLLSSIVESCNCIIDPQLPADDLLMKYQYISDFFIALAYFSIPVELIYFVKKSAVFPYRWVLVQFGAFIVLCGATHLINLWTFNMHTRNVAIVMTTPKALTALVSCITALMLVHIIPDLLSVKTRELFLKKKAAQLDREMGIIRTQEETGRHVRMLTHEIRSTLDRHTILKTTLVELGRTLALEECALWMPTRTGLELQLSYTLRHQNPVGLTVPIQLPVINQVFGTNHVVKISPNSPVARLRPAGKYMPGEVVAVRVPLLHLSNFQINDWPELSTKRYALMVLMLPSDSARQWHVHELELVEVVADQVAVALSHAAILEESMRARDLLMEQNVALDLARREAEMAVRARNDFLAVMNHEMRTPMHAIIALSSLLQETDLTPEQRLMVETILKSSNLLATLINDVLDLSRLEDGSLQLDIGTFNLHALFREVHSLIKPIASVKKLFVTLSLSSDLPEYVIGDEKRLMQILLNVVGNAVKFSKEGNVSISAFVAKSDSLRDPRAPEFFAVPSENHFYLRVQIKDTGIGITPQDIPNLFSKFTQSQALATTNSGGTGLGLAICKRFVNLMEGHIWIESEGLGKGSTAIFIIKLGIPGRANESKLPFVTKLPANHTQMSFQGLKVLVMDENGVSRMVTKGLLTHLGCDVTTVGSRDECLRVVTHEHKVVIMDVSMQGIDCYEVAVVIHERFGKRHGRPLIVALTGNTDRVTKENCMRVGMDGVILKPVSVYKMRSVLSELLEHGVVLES", "test": "FRET assay of LeEIN2-LeETR1 complex formation", "type": "biochemical", "conditions": "FRET assay; 100 μM peptide where stated; LeETR1-Alexa Fluor 488 and LeEIN2-Alexa Fluor 568, 3 μM each", "source_text": "(§1) For this purpose, we made use of a fluorescence resonance energy transfer (FRET)-based in vitro assay, originally established for the respective Arabidopsis signaling proteins. Recombinant ethylene proteins LeETR1 and LeEIN2^462–1316 were labeled with fluorescent Alexa dyes[36] as described in the Methods section. LeETR1 was labeled with Alexa Fluor 488, while LeEIN2^462–1316 was labeled with Alexa Fluor 568. As the emission spectrum of the donor fluorophore partially overlaps with the excitation spectrum of the acceptor fluorophore, the dyes form a FRET pair and energy transfer from the donor to the acceptor fluorophore is possible when both probes get in close proximity. […] Formation of the complex is monitored by FRET from the donor molecule Alexa Fluor 488 to the acceptor molecule Alexa Fluor 568. Processes or molecules that prevent complex formation result in a reduced FRET from the donor to the acceptor, which is detected as reduced acceptor fluorescence at the emission maximum.\nQuantitative analysis of inhibitory peptides on ETR1-EIN2 complex by FRET\nFor the FRET assay, recombinant LeETR1 was labeled with Alexa Fluor 488 succinimidyl-ester and LeEIN2^462–1316 was labeled with Alexa Fluor 568 succinimidyl-ester (both Life Technologies) in a buffer containing 50 mM potassium phosphate pH 8.0, 300 mM NaCl and 5% (v/v) glycerol following manufacturer’s protocol (MolecularProbes Protein Labeling Kit). Labeled proteins were transferred in FRET buffer containing 50 mM Tris-HCl pH 8.0, 300 mM NaCl, 0.05% (v/v) Tween 20, 5% (v/v) glycerol and mixed at a final concentration of 3.0 μM each. […] The FRET-based binding assay was carried out in 384-well microplates using an Infinite M200 Pro microplate reader (Tecan) at 455 nm excitation wavelength. Emission spectra were detected between 565 nm to 645 nm. FRET efficiencies were calculated from the maximal emission in the absence and in the presence of the supplied peptides and the half maximal inhibitor concentration IC50 was calculated as previously described."}, "[2]": {"test": "Fluorescence of the dyes on their own (FRET control)", "conditions": "100 μM peptide; free dyes", "source_text": "as §1\n(b) Calculation of IC50 value for NOP-1. Data were obtained in the FRET-assay in presence of increasing concentrations of NOP-1 peptide. […] (c) Determination of Kd value of NOP-1 binding to LeETR1 based on MST is illustrated. MST-signal is plotted against the NOP-1 concentration. […] All data (a,b,c) represent the mean +/− standard deviation."}, "[3]": {"biological_target": "B1", "test": "MST; 50 nM LeETR1 labeled with Alexa Fluor 488-Maleimide titrated with NOP-1 (3.8 nM to 31 μM); 50 mM Tris-HCl pH 8.0, 300 mM NaCl, 0.015% Fos-Choline-16; 80% MST power; 1:1 model", "conditions": "both partners purified"}, "[4]": {"biological_target": "B1", "test": "FRET or BRET; in vitro FRET: LeETR1-Alexa Fluor 488 (donor) and LeEIN2 462-1316-Alexa Fluor 568 (acceptor), 3.0 μM each; 50 mM Tris-HCl pH 8.0, 300 mM NaCl, 0.05% Tween 20, 5% glycerol; proteins pre-incubated with peptides; excitation 455 nm, 384-well plates", "conditions": "both partners purified"}, "[5]": {"biological_target": "T2, C-terminal part of tomato EIN2 (LeEIN2^462–1316) (tomato, UniProt Q6Q2C1 462-1316, unlabeled in the MST titration of labeled LeETR1; Alexa Fluor 488 label in the reverse MST titration; Alexa Fluor 568 succinimidyl-ester label in the FRET assay)", "T2 construct": "the N-terminal membrane domain (aa 1-461) was deleted from the full-length cDNA; The purified protein was detected with an anti-polyhistidine antibody; no tag removal is described; also called C-terminal domain of tomato EIN2; source: E. coli BL21(DE3) with pRARE, purified (HisTrap FF, PD-10 desalting)", "T2 sequence (looked up)": "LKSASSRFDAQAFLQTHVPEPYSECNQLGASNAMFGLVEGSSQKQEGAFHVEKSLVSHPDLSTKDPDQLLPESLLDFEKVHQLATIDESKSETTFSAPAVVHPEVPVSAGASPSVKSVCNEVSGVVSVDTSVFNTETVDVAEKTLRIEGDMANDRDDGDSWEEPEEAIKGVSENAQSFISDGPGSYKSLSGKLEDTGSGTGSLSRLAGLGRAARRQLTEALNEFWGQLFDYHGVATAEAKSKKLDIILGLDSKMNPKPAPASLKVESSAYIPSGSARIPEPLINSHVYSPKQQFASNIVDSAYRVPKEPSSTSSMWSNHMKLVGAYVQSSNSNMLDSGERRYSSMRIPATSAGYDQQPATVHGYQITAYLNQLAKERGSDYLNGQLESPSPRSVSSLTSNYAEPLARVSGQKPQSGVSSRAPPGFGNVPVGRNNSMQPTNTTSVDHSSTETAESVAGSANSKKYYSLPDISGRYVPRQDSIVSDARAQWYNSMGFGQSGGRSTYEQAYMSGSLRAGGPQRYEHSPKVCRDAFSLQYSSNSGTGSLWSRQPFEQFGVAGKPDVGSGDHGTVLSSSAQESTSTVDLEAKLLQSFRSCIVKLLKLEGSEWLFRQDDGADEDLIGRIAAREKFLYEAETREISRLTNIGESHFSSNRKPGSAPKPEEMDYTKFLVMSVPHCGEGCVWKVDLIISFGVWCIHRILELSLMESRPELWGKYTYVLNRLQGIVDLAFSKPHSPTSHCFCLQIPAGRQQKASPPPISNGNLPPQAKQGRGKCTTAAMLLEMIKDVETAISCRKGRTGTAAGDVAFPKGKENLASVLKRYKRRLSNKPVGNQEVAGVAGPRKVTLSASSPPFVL", "test": "MST; LeEIN2 462-1316 labeled with Alexa Fluor 488 titrated with non-labeled LeETR1 (Supplementary Fig. S3)", "conditions": "both partners purified"}, "[6]": {"biological_target": "T2, C-terminal part of tomato EIN2 …", "test": "MST; 0.4 μM LeETR1-Alexa Fluor 488 titrated with LeEIN2 462-1316 (4.69 nM to 9.6 μM); 50 mM Tris-HCl pH 8.0, 300 mM NaCl, 0.015% Fos-Choline-16; Monolith NT.115, 80% MST power, triplicates", "conditions": "both partners purified"}},
  "note": "“Also recorded” adds a separate entry of the source.",
  "data": [
    {"molecule": "NCCO/C=C/[C@H](N)C(=O)O", "note": "[AVG, aminoethoxyvinylglycine, reference compound]", "values": [
      {"measurement": "delay in maturation of tomato fruits", "setting": "[1]", "result": "10 to 15", "unit": "days"}
    ]},
    {"molecule": "CC1=CC1", "note": "[MCP, 1-methylcyclopropane, reference compound]", "values": [
      {"measurement": "delay in maturation of tomato fruits", "setting": "[1]", "result": "10 to 15", "unit": "days"}
    ]},
    {"molecule": "EFLYMSVN-NH2 [ROP-1, reference compound]", "values": [
      {"measurement": "effect on tomato EIN2-ETR1 complex formation", "setting": "tomato EIN2-ETR1 complex", "result": "no effect on tomato EIN2-ETR1 complex formation was observed"},
      {"measurement": "effect on fluorescence of the dyes on their own", "setting": "[2]", "result": "not affected by the peptides; also recorded: Neither of both peptides affected fluorescence of the free, unlabeled dyes"},
      {"measurement": "effect on tomato fruit ripening (in words)", "setting": "[1]; compared with buffer or untreated control, inhibitors at 200 μM", "result": "no effect on the ripening process; also recorded: A related delay in ripening was not observed"}
    ]},
    {"molecule": "H-LKRYKRRL-NH2 (the motif is fully conserved in tomato EIN2; also called NLS-based peptide; source: synthetic peptide (Molecular Proteomics Laboratory of the BMFZ Düsseldorf, >90% purity))", "note": "[NOP-1 (LKRYKRRL-NH2)]", "values": [
      {"measurement": "Kd", "setting": "[3]", "result": 156, "unit": "nM"},
      {"measurement": "IC50", "setting": "[4]", "result": 160, "unit": "µM"}
    ]},
    {"molecule": "B1", "values": [
      {"measurement": "Kd", "setting": "[5]", "result": 651, "unit": "nM"},
      {"measurement": "Kd", "setting": "[6]", "result": 619, "unit": "nM"}
    ]}
  ]
}
